Experimental data reported in patent US11590116B2 (THERAVANCE BIOPHARMA R&D IP, LLC, priority 2019, dated 2023).

What was measured:
[1] = target: T1, recombinant human ALK5 (TGF-βR1) protein (Homo sapiens, UniProt P36897); assay: Biochemical ALK5 (TGF-βR1) assay to measure pKi (LANCE Ultra ULight kinase assay); conditions: apparent pKi from pIC50 by Cheng-Prusoff, read-out: ALK5 pKi (converted)
T1 construct: purchased Life Technologies PR9075A
T1 sequence (P36897 34-503): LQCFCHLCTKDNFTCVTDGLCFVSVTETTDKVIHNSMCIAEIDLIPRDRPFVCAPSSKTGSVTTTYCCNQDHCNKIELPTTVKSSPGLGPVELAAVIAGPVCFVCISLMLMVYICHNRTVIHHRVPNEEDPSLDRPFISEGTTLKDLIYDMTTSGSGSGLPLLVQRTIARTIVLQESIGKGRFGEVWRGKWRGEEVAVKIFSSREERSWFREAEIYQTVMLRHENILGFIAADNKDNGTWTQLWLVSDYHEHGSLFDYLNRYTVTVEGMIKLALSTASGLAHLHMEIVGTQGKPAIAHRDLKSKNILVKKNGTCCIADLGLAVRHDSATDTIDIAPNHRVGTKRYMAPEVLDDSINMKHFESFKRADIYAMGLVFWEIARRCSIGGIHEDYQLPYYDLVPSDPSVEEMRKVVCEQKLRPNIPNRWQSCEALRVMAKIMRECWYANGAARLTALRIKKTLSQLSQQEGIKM
How it was run: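 Dose range 10 μM–25 pM; enzyme + compound 60 min RT; ATP added (5× stock 125 μM, 2 mM DTT); 60 min 37 °C; stop with EDTA + Eu anti-phospho-Topo IIα Thr1342 Ab; TR-FRET ex 320/340, em 665 nm. 4-param pIC50 → pKi (Cheng-Prusoff).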

[2] = test system: TGF-β-stimulated SMAD3 phosphorylation in BEAS-2B cells; assay: Cellular ALK5 potency assay, inhibition of TGF-β stimulated pSMAD3 formation in BEAS-2B cells; format: cell-based; conditions: Homo sapiens; inhibition of TGF-β stimulated pSMAD3 formation, BEAS-2B cells; read-out: BEAS2B pIC50 (converted)
How it was run: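 SMAD3 phosphorylation was measured by AlphaLISA after 30 min TGF-β stimulation (10 ng/mL final) of BEAS-2B cells preincubated 1 h with compound at 37 °C. Results given as pIC50.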

## Cc1nc(-c2n[nH]cc2-c2ccc3ncc(-c4cnn(C(=O)OC(C)C)c4)cc3n2)ccc1F [Compound 599, isopropyl 4-[6-[3-(5-fluoro-6-methyl-2-pyridyl)-1H-pyrazol-4-yl]-1,5-naphthyridin-3-yl]pyrazole-1-carboxylate]
[1]
  Ki: < 0.0316 nM
[2]
  IC50: < 20 nM

## COc1[nH]nc(-c2cccc(C)n2)c1-c1ccc2ncc(N)cc2n1 [Compound 600, 6-(5-methoxy-3-(6-methylpyridin-2-yl)-1H-pyrazol-4-yl)-1,5-naphthyridin-3-amine]
[1]
  Ki: 0.0398 to 0.316 nM
[2]
  IC50: 25.1 to 158 nM

## CCOC(=O)CCN(C)c1cnc2ccc(-c3c[nH]nc3-c3cccc(C)n3)nc2c1 [Compound 601, ethyl 3-[methyl-[6-[3-(6-methyl-2-pyridyl)-1H-pyrazol-4-yl]-1,5-naphthyridin-3-yl]amino]propanoate]
[1]
  Ki: 3.98 to 31.6 nM
[2]
  IC50: 200 to 1260 nM

## Cc1cccc(-c2[nH]nnc2-c2ccc3ncc(-c4cnn(C5CCCNC5)c4)cc3n2)n1 (stereo not drawn) [Compound 602, 2-[5-(6-methyl-2-pyridyl)-1H-triazol-4-yl]-7-[1-(3-piperidyl)pyrazol-4-yl]-1,5-naphthyridine]
[1]
  Ki: < 0.0316 nM
[2]
  IC50: 200 to 1260 nM

## Cc1nc(-c2[nH]cnc2-c2ccc3ncc(NCCN4CCCC4(C)C)cc3n2)ccc1F [Compound 603, N-[2-(2,2-dimethylpyrrolidin-1-yl)ethyl]-6-[5-(5-fluoro-6-methyl-2-pyridyl)-1H-imidazol-4-yl]-1,5-naphthyridin-3-amine]
[1]
  Ki: < 0.0316 nM
[2]
  IC50: 25.1 to 158 nM

## Cc1cccc(-c2n[nH]cc2-c2ccc3ncc(-c4cn[nH]c4-c4cccc(C)n4)cc3n2)n1 [Compound 604, 2-[3-(6-methyl-2-pyridyl)-1H-pyrazol-4-yl]-7-[5-(6-methyl-2-pyridyl)-1H-pyrazol-4-yl]-1,5-naphthyridine]
[1]
  Ki: 0.398 to 3.16 nM
[2]
  IC50: 25.1 to 158 nM

## CNCCn1cc(-c2cnc3ccc(-c4c(-c5cccc(C)n5)nn5cc(Cl)ccc45)cc3c2)cn1 [Compound 605, 2-[4-[6-[6-chloro-2-(6-methyl-2-pyridyl)pyrazolo[1,5-a]pyridin-3-yl]-3-quinolyl]pyrazol-1-yl]-N-methyl-ethanamine]
[1]
  Ki: 0.0398 to 0.316 nM
[2]
  IC50: 200 to 1260 nM

## CNC1CCCN(c2cnc3ccc(-c4c[nH]nc4-c4cccc(C)n4)nc3c2)C1 (stereo not drawn) [Compound 606, N-methyl-1-[6-[3-(6-methyl-2-pyridyl)-1H-pyrazol-4-yl]-1,5-naphthyridin-3-yl]piperidin-3-amine]
[1]
  Ki: 0.0398 to 0.316 nM
[2]
  IC50: 25.1 to 158 nM

## Cc1cccc(-c2n[nH]cc2-c2ccc3ncc(C(N)=O)cc3n2)n1 [Compound 607, 6-[3-(6-methyl-2-pyridyl)-1H-pyrazol-4-yl]-1,5-naphthyridine-3-carboxamide]
[1]
  Ki: 0.0398 to 0.316 nM
[2]
  IC50: 25.1 to 158 nM

## Cc1cccc(-c2[nH]cnc2-c2ccc3ncc(-c4cccc(C(=O)O[C@@H]5CCN(C)C5)c4)cc3c2)n1 [Compound 608, [(3R)-1-methylpyrrolidin-3-yl] 3-[6-[5-(6-methyl-2-pyridyl)-1H-imidazol-4-yl]-3-quinolyl]benzoate]
[1]
  Ki: 0.0398 to 0.316 nM
[2]
  IC50: 25.1 to 158 nM

## Cc1cccc(-c2[nH]cnc2-c2ccc3ncc(-c4ccc5c(c4)CNCC5)cc3c2)n1 [Compound 609, 6-[5-(6-methyl-2-pyridyl)-1H-imidazol-4-yl]-3-(1,2,3,4-tetrahydroisoquinolin-7-yl)quinoline]
[1]
  Ki: 0.0398 to 0.316 nM
[2]
  IC50: < 20 nM

## Cc1cccc(-c2n[nH]cc2-c2ccc3ncc(NC(=O)C(F)(F)F)cc3n2)n1 [Compound 610, 2,2,2-trifluoro-N-[6-[3-(6-methyl-2-pyridyl)-1H-pyrazol-4-yl]-1,5-naphthyridin-3-yl]acetamide]
[1]
  Ki: 0.0398 to 0.316 nM
[2]
  IC50: 25.1 to 158 nM

## Cc1nc(-c2n[nH]cc2-c2ccc3ncc(-c4nc5c([nH]4)CCNCC5)cc3n2)ccc1F [Compound 611, 2-[6-[3-(5-fluoro-6-methyl-2-pyridyl)-1H-pyrazol-4-yl]-1,5-naphthyridin-3-yl]-1,4,5,6,7,8-hexahydroimidazo[4,5-d]azepine]
[1]
  Ki: < 0.0316 nM
[2]
  IC50: 1580 to 10000 nM

## Cc1cccc(-c2n[nH]cc2-c2ccc3ncc(-c4cc[nH]n4)cc3n2)n1 [Compound 612, 2-[3-(6-methyl-2-pyridyl)-1H-pyrazol-4-yl]-7-(1H-pyrazol-3-yl)-1,5-naphthyridine]
[1]
  Ki: 0.0398 to 0.316 nM
[2]
  IC50: 25.1 to 158 nM

## COC(=O)N1CCc2nnc(-c3cnc4ccc(-c5c[nH]nc5-c5cccc(C)n5)nc4c3)cc2C1 [Compound 613, methyl 3-[6-[3-(6-methyl-2-pyridyl)-1H-pyrazol-4-yl]-1,5-naphthyridin-3-yl]-7,8-dihydro-5H-pyrido[4,3-c]pyridazine-6-carboxylate]
[1]
  Ki: 0.0398 to 0.316 nM
[2]
  IC50: 25.1 to 158 nM

## CNC1CN(c2cnc3ccc(-c4nc[nH]c4-c4cccc(C)n4)cc3c2)C1 [Compound 614, N-methyl-1-[6-[5-(6-methyl-2-pyridyl)-1H-imidazol-4-yl]-3-quinolyl]azetidin-3-amine]
[1]
  Ki: 0.0398 to 0.316 nM
[2]
  IC50: 25.1 to 158 nM

## Cc1cccc(-c2n[nH]cc2-c2ccc3ncc(CCCN4CCN(C(C)C)CC4)cc3n2)n1 [Compound 615, 7-[3-(4-isopropylpiperazin-1-yl)propyl]-2-[3-(6-methyl-2-pyridyl)-1H-pyrazol-4-yl]-1,5-naphthyridine]
[1]
  Ki: 0.0398 to 0.316 nM
[2]
  IC50: 25.1 to 158 nM

## Cc1cccc(-c2[nH]cnc2-c2ccc3ncc(-c4ccc(C(=O)OC5CNC5)nc4)cc3c2)n1 [Compound 616, azetidin-3-yl 5-[6-[5-(6-methyl-2-pyridyl)-1H-imidazol-4-yl]-3-quinolyl]pyridine-2-carboxylate]
[1]
  Ki: 0.0398 to 0.316 nM
[2]
  IC50: 25.1 to 158 nM

## Cc1cccc(-c2n[nH]cc2-c2ccc3ncc(N4CCC(C)(O)CC4)cc3n2)n1 [Compound 617, 4-methyl-1-[6-[3-(6-methyl-2-pyridyl)-1H-pyrazol-4-yl]-1,5-naphthyridin-3-yl]piperidin-4-ol]
[1]
  Ki: < 0.0316 nM
[2]
  IC50: < 20 nM

## Cc1cccc(-c2[nH]cnc2-c2ccc3ncc(NC(=O)C4CCNC4)cc3c2)n1 (stereo not drawn) [Compound 618, N-[6-[5-(6-methyl-2-pyridyl)-1H-imidazol-4-yl]-3-quinolyl]pyrrolidine-3-carboxamide]
[1]
  Ki: 0.0398 to 0.316 nM
[2]
  IC50: 200 to 1260 nM

## Cc1cccc(-c2n[nH]cc2-c2ccc3ncc(NCCN4CCN(C)CC4)cc3n2)n1 [Compound 619, N-[2-(4-methylpiperazin-1-yl)ethyl]-6-[3-(6-methyl-2-pyridyl)-1H-pyrazol-4-yl]-1,5-naphthyridin-3-amine]
[1]
  Ki: 0.0398 to 0.316 nM
[2]
  IC50: 25.1 to 158 nM

## Cc1nc(-c2nc3ccccn3c2-c2ccc3ncc(NCCN4CCN(C(C)C)CC4)cc3c2)ccc1F [Compound 620, 6-[2-(5-fluoro-6-methyl-2-pyridyl)imidazo[1,2-a]pyridin-3-yl]-N-[2-(4-isopropylpiperazin-1-yl)ethyl]quinolin-3-amine]
[1]
  Ki: 0.0398 to 0.316 nM
[2]
  IC50: 25.1 to 158 nM

## Cc1cccc(-c2[nH]nnc2-c2ccc3ncc(NCCN4CCN(C(C)C)CC4)cc3c2)n1 [Compound 621, N-(2-(4-isopropylpiperazin-1-yl)ethyl)-6-(5-(6-methylpyridin-2-yl)-1H-1,2,3-triazol-4-yl)quinolin-3-amine]
[1]
  Ki: 0.0398 to 0.316 nM
[2]
  IC50: 25.1 to 158 nM

## Cc1cccc(-c2n[nH]cc2-c2ccc3ncc(-c4[nH]nc5c4CCNC5)cc3n2)n1 [Compound 622, 2-[3-(6-methyl-2-pyridyl)-1H-pyrazol-4-yl]-7-(4,5,6,7-tetrahydro-2H-pyrazolo[3,4-c]pyridin-3-yl)-1,5-naphthyridine]
[1]
  Ki: 0.0398 to 0.316 nM
[2]
  IC50: 200 to 1260 nM
